Measured values: patent US20240261258A1, “Presurgical Perineural Administration of Resiniferatoxin For Reduction of Post-Operative Pain” (Sorrento Therapeutics, Inc., priority 2021, published 2024)
Marks after values point to notes of the source that are not given here.

Assays:
[1] = test system: dog undergoing TPLO, femoral and sciatic nerves; experiment: TPLO in a single dog after perineural RTX (Example A); assay type: in vivo
Experimental: A TPLO (Tibial Plateau Osteotomy) was performed on a single dog. Before surgery, 25 μg RTX was administered perineurally to the femoral and sciatic nerves. The procedure included cutting the bone in the leg, changing the angle of the knee articulation, screwing in a plate, and resewing muscle that was cut to access the knee.
After waking up, all of the dog's motor functions were preserved. […] The dog was able to put the affected leg down from time to time when ambulating but, as would be expected, the leg was not fully weight-bearing.

left stifle joint = experiment: Necropsy and histopathology of stifle joints; assay type: in vivo, dog; conditions: for Bone remodeling with increased osteoblasts/osteoclasts: Mild, number of dogs / Bone remodeling with increased osteoblasts/osteoclasts: Minimal, number of dogs / Bone remodeling with increased osteoblasts/osteoclasts: Moderate, number of dogs / Bone remodeling with increased osteoblasts/osteoclasts: number of dogs with the finding / Collagen (picosirius red stain): number of dogs with the finding / Non-epiphyseal cartilage: Mild, number of dogs / Non-epiphyseal cartilage: Minimal, number of dogs / Non-epiphyseal cartilage: Moderate, number of dogs / Non-epiphyseal cartilage: number of dogs with the finding / Screw holes with intraluminal hemorrhage: Mild, number of dogs / Screw holes with intraluminal hemorrhage: number of dogs with the finding / Soft tissue mononuclear inflammation: Mild, number of dogs / Soft tissue mononuclear inflammation: Minimal, number of dogs / Soft tissue mononuclear inflammation: number of dogs with the finding / Synovial hypertrophy/hyperplasia: Mild, number of dogs / Synovial hypertrophy/hyperplasia: Minimal, number of dogs / Synovial hypertrophy/hyperplasia: Moderate, number of dogs / Synovial hypertrophy/hyperplasia: number of dogs with the finding: left stifle joint, 4 examined; for Average collagen score left leg (picosirius red): operated left stifle; for Average collagen score right leg (picosirius red): un-operated right stifle
From the text: These findings were confirmed during necropsy.
It was characterized by plump, variably piled synoviocytes with slightly more prominent fibrillary projections into the synovial spaces as compared to the control right stifle joints. Some control un-operated right stifle joints also occasionally had minimal synovial hypertrophy/hyperplasia typified by slightly plump, variably piled synoviocytes, but lacked increased fibrillary projections.
Soft tissue mononuclear inflammation was seen as small collections of lymphocytes, macrophages, and/or plasma cells or increased numbers of diffusely scattered mononuclear cells. The inflammation was commonly seen in the synovial lining subjacent to the synoviocytes, or in soft tissues that remained attached to the bone/joint. The incidences and average severity grades were not remarkably different between left joint groups.
Bone remodeling with increased osteoblasts/osteoclasts was characterized by irregular areas of bone/callous formation. Some areas of bone remodeling had increased cellularity due to increased numbers of osteoblasts and osteoclasts that outlined bone.
Presence of cartilage on the operated sides was presumptively interpreted to represent areas of residual cartilage in the physis which had been shifted/transposed by the TPLO surgery, and/or new cartilage formation. The amount of cartilage in each section was subjectively graded using the H&E and toluidine blue stains. […] Any differences could also be influenced by differences in physeal cartilage amounts/extent of physeal closure between dogs, and by plane-of-section variabilities.
A collagen score for each of the stifle joint slides stained with picosirius red was assigned based on the qualitative estimate of collagen present on the slide. The average of the three slides per joint was recorded. An overall collagen score for the left and right stifle joints for each group was calculated by averaging the individual collagen scores. […] The average collagen scores of groups 1-4 for the operated left legs were slightly higher than the corresponding un-operated right leg group average collagen scores. Higher collagen in the operated legs seemed consistent with post-surgical healing processes.

[2] = test system: CGRP immunopositive axons of sciatic and femoral nerves; experiment: Quantification of CGRP immunopositive nerve fibers; assay type: in vivo, dog
Experimental: FIGS. 1A-J show density of CGRP immunopositive axons in representative confocal images of ipsilateral (left; A-D) and contralateral (right; E-H) sciatic nerve from dogs post-TPLO and after different treatment and doses of RTX. Each bar represents the mean±SEM. Data were analyzed by one-way ANOVA followed by Tukey post hoc test; *p<0.05. FIGS. 1I-J are bar graphs of the density of CGRP immunopositive axons, (density of nerve fibers in mm/mm3) in ipsilateral (I) and contralateral (J) sciatic nerves as measured in n subjects in each group.
FIGS. 3A-J show CGRP immunopositive axon density in representative confocal images of ipsilateral (left; A-D) and contralateral (right; E-H) femoral nerve from dogs post-TPLO surgery and after different treatment and doses of RTX. Each bar represents the mean±SEM. Data were analyzed by one-way ANOVA followed by Tukey post hoc test; *p<0.05. FIGS. 3I-J are bar graphs of the density of CGRP immunopositive axons (density of nerve fibers in mm/mm3) in ipsilateral (I), and contralateral (J) femoral nerves as measured in n subjects in each group.
The effects of different routes of administration and/or different doses of RTX on the density of CGRP immunopositive axons in the ipsilateral (left) and contralateral (right) sciatic nerves are shown in FIG. 1. […] However, statistical significance was observed only with the dose of 12.5 μg (25 μg total; p=0.0184) per nerve of RTX. FIGS. 1E-H show the effect of different treatment and doses of RTX on the density of CGRP nerve axons innervating the contralateral (right) sciatic nerve from animals post-TPLO.

[3] = 25 μg RTX perineurally before surgery

C=C(C)[C@]12C[C@@H](C)[C@@]34O[C@](Cc5ccccc5)(O[C@@H]1[C@@H]3C=C(COC(=O)Cc1ccc(O)c(OC)c1)C[C@]1(O)C(=O)C(C)=C[C@@H]41)O2 [RTX, resiniferatoxin]
Additional pain medications when the dog woke up [1, 3]: No additional pain medications | Motor functions after waking up [1, 3]: preserved | Need to deepen the general anesthesia during cutting of the bone [1, 3]: no need to deepen the general anesthesia | Need to increase the opioid dose for the last part of the surgery [1, 3]: no need to increase the opioid dose | Pain at manipulation, inflammation, and swelling (standardized veterinary post-surgical pain scale) [1, 3]: lower than expected | Time until the dog was up and walking [1, 3]: Within a couple of hours | Reaction of the dog during cutting of the bone ([1]; 25 μg RTX perineurally to femoral and sciatic nerves before surgery): no reaction | Microscopic changes in the left stifle joints (left stifle joint; all RTX groups, day 56): No microscopic changes in the left stifle joints suggestive of RTX-related toxicity | Callus at removal of the TPLO plate (left stifle joint; all stifles, confirmed during necropsy): normal callus | Bone remodeling with increased osteoblasts/osteoclasts: Mild, number of dogs (left stifle joint; Group 1 High (25 μg)): 2 | Bone remodeling with increased osteoblasts/osteoclasts: Minimal, number of dogs (left stifle joint; Group 1 High (25 μg)): 2 | Bone remodeling with increased osteoblasts/osteoclasts: Moderate, number of dogs (left stifle joint; Group 1 High (25 μg)): 0 | Bone remodeling with increased osteoblasts/osteoclasts: number of dogs with the finding (left stifle joint; Group 1 High (25 μg)): (4) | Collagen (picosirius red stain): number of dogs with the finding (left stifle joint; Group 1 High (25 μg)): (4) | Non-epiphyseal cartilage: Mild, number of dogs (left stifle joint; Group 1 High (25 μg)): 1 | Non-epiphyseal cartilage: Minimal, number of dogs (left stifle joint; Group 1 High (25 μg)): 1 | Non-epiphyseal cartilage: Moderate, number of dogs (left stifle joint; Group 1 High (25 μg)): 2 | Non-epiphyseal cartilage: number of dogs with the finding (left stifle joint; Group 1 High (25 μg)): (4) | Screw holes with intraluminal hemorrhage: Mild, number of dogs (left stifle joint; Group 1 High (25 μg)): 4 | Screw holes with intraluminal hemorrhage: number of dogs with the finding (left stifle joint; Group 1 High (25 μg)): (4) | Soft tissue mononuclear inflammation: Mild, number of dogs (left stifle joint; Group 1 High (25 μg)): 1 | Soft tissue mononuclear inflammation: Minimal, number of dogs (left stifle joint; Group 1 High (25 μg)): 3 | Soft tissue mononuclear inflammation: number of dogs with the finding (left stifle joint; Group 1 High (25 μg)): (4) | Synovial hypertrophy/hyperplasia: Mild, number of dogs (left stifle joint; Group 1 High (25 μg)): 4 | Synovial hypertrophy/hyperplasia: Minimal, number of dogs (left stifle joint; Group 1 High (25 μg)): 0 | Synovial hypertrophy/hyperplasia: Moderate, number of dogs (left stifle joint; Group 1 High (25 μg)): 0 | Synovial hypertrophy/hyperplasia: number of dogs with the finding (left stifle joint; Group 1 High (25 μg)): (4) | Bone remodeling with increased osteoblasts/osteoclasts: Mild, number of dogs (left stifle joint; Group 2 Low (6.25 μg)): 2 | Bone remodeling with increased osteoblasts/osteoclasts: Minimal, number of dogs (left stifle joint; Group 2 Low (6.25 μg)): 1 | Bone remodeling with increased osteoblasts/osteoclasts: Moderate, number of dogs (left stifle joint; Group 2 Low (6.25 μg)): 1 | Bone remodeling with increased osteoblasts/osteoclasts: number of dogs with the finding (left stifle joint; Group 2 Low (6.25 μg)): (4)^a | Collagen (picosirius red stain): number of dogs with the finding (left stifle joint; Group 2 Low (6.25 μg)): (4)^a | Non-epiphyseal cartilage: Mild, number of dogs (left stifle joint; Group 2 Low (6.25 μg)): 1 | Non-epiphyseal cartilage: Minimal, number of dogs (left stifle joint; Group 2 Low (6.25 μg)): 1 | Non-epiphyseal cartilage: Moderate, number of dogs (left stifle joint; Group 2 Low (6.25 μg)): 2 | Non-epiphyseal cartilage: number of dogs with the finding (left stifle joint; Group 2 Low (6.25 μg)): (4)^a | Screw holes with intraluminal hemorrhage: Mild, number of dogs (left stifle joint; Group 2 Low (6.25 μg)): 4 | Screw holes with intraluminal hemorrhage: number of dogs with the finding (left stifle joint; Group 2 Low (6.25 μg)): (4)^a | Soft tissue mononuclear inflammation: Mild, number of dogs (left stifle joint; Group 2 Low (6.25 μg)): 4 | Soft tissue mononuclear inflammation: Minimal, number of dogs (left stifle joint; Group 2 Low (6.25 μg)): 0 | Soft tissue mononuclear inflammation: number of dogs with the finding (left stifle joint; Group 2 Low (6.25 μg)): (4)^a | Synovial hypertrophy/hyperplasia: Mild, number of dogs (left stifle joint; Group 2 Low (6.25 μg)): 3 | Synovial hypertrophy/hyperplasia: Minimal, number of dogs (left stifle joint; Group 2 Low (6.25 μg)): 0 | Synovial hypertrophy/hyperplasia: Moderate, number of dogs (left stifle joint; Group 2 Low (6.25 μg)): 1 | Synovial hypertrophy/hyperplasia: number of dogs with the finding (left stifle joint; Group 2 Low (6.25 μg)): (4)^a | Bone remodeling with increased osteoblasts/osteoclasts: Mild, number of dogs (left stifle joint; Group 3 Local (50 μg)): 2 | Bone remodeling with increased osteoblasts/osteoclasts: Minimal, number of dogs (left stifle joint; Group 3 Local (50 μg)): 0 | Bone remodeling with increased osteoblasts/osteoclasts: Moderate, number of dogs (left stifle joint; Group 3 Local (50 μg)): 2 | Bone remodeling with increased osteoblasts/osteoclasts: number of dogs with the finding (left stifle joint; Group 3 Local (50 μg)): (4) | Collagen (picosirius red stain): number of dogs with the finding (left stifle joint; Group 3 Local (50 μg)): (4) | Non-epiphyseal cartilage: Mild, number of dogs (left stifle joint; Group 3 Local (50 μg)): 2 | Non-epiphyseal cartilage: Minimal, number of dogs (left stifle joint; Group 3 Local (50 μg)): 0 | Non-epiphyseal cartilage: Moderate, number of dogs (left stifle joint; Group 3 Local (50 μg)): 2 | Non-epiphyseal cartilage: number of dogs with the finding (left stifle joint; Group 3 Local (50 μg)): (4) | Screw holes with intraluminal hemorrhage: Mild, number of dogs (left stifle joint; Group 3 Local (50 μg)): 4 | Screw holes with intraluminal hemorrhage: number of dogs with the finding (left stifle joint; Group 3 Local (50 μg)): (4) | Soft tissue mononuclear inflammation: Mild, number of dogs (left stifle joint; Group 3 Local (50 μg)): 2 | Soft tissue mononuclear inflammation: Minimal, number of dogs (left stifle joint; Group 3 Local (50 μg)): 2 | Soft tissue mononuclear inflammation: number of dogs with the finding (left stifle joint; Group 3 Local (50 μg)): (4) | Synovial hypertrophy/hyperplasia: Mild, number of dogs (left stifle joint; Group 3 Local (50 μg)): 3 | Synovial hypertrophy/hyperplasia: Minimal, number of dogs (left stifle joint; Group 3 Local (50 μg)): 0 | Synovial hypertrophy/hyperplasia: Moderate, number of dogs (left stifle joint; Group 3 Local (50 μg)): 1 | Synovial hypertrophy/hyperplasia: number of dogs with the finding (left stifle joint; Group 3 Local (50 μg)): (4) | Average collagen score left leg (picosirius red) (left stifle joint; Group 1 High (25 μg)): 2.9 | Average collagen score left leg (picosirius red) (left stifle joint; Group 2 Low (6.25 μg)): 2.6 | Average collagen score left leg (picosirius red) (left stifle joint; Group 3 Local (50 μg)): 3.0 | Average collagen score right leg (picosirius red) (left stifle joint; Group 1 High (25 μg)): 2.3 | Average collagen score right leg (picosirius red) (left stifle joint; Group 2 Low (6.25 μg)): 2.3 | Average collagen score right leg (picosirius red) (left stifle joint; Group 3 Local (50 μg)): 2.4 | Density of CGRP nerve axons in the contralateral sciatic nerve vs control treatment ([2]; RTX treated groups, p=0.9565, p=0.7911, p=0.7229): no differences | Density of CGRP nerve axons in the contralateral femoral nerve vs control treatment ([2]; any RTX treatment, p=0.9914, p>0.9999, p=0.1760): did not statistically reduce | Density of CGRP nerve axons in the ipsilateral sciatic nerve vs control treatment ([2]; local administration (50 μg), not statistically significant): reduced the density of CGRP nerve axons | Density of CGRP nerve axons in the ipsilateral sciatic nerve vs control treatment ([2]; peri-neural 3.12 μg per nerve (6.25 μg total), not statistically significant): reduced the density of CGRP nerve axons | Density of CGRP nerve axons in the ipsilateral femoral nerve ([2]; peri-neural 12.5 μg per nerve (25 μg total), p=0.0125): statistically reduced | Density of CGRP nerve axons in the ipsilateral sciatic nerve vs control treatment ([2]; peri-neural 12.5 μg per nerve (25 μg total), statistically significant, p=0.0184): reduced the density of CGRP nerve axons
